# Laboratory results published in PMC10222328 (Pharmaceuticals, 2023).
# What was measured:
# [1] = test system: carrageenan-induced rat paw edema; experiment: Carrageenan-induced rat paw edema model; assay type: in vivo, Wistar albino rats; settings: for Rat paw thickness: mean ± SD; for inhibition in vivo at 2.5 mg/kg / inhibition in vivo at 5 mg/kg / inhibition in vivo at 10 mg/kg: Rattus norvegicus, po
# Protocol: In vivo assessment of anti-inflammatory activity of compounds 1–7 was conducted in the carrageenan-induced rat paw edema model. Inflammation in all rats was induced by an intraplantar injection of […] of 0.5% carrageenan saline in the left hind paw. Two hundred male Wistar albino rats (180–210 g) were divided into seven experimental (n = 168 rats, 8 rats per subgroup) and two control groups (n = 32 rats, 8 rats per subgroup).
# Experimental groups involved rats that received compounds 1–7, and they were divided into three subgroups: rats received compounds 1–7 per os in three doses (2.5 mg/kg, 5 mg/kg, and 10 mg/kg) dissolved in 1% DMSO for 60 min before inducing inflammation.
# In order to quantify the anti-inflammatory effect, the thickness of the left paw tissue of each rat was measured at the following time intervals: immediately before inducing inflammation (moment 0) and 1, 2, 3, and 4 h (moments 1, 2, 3, and 4) after inflammation. Tissue thickness was measured in the middle of the rat paw using a digital vernier caliper (Aerospace, Beijing, China).
# [2] = biological target: T1, 5-LOX (Homo sapiens, UniProt P09917); experiment: Fluorometric 5-LOX inhibitor screening kit; assay type: biochemical; settings: mean ± standard error of two measurements; for inhibition at 10 µM: read-out: 5-LOX Percent of Inhibition
# T1 construct: purchased Abcam, UK
# T1 sequence (P09917 1-674): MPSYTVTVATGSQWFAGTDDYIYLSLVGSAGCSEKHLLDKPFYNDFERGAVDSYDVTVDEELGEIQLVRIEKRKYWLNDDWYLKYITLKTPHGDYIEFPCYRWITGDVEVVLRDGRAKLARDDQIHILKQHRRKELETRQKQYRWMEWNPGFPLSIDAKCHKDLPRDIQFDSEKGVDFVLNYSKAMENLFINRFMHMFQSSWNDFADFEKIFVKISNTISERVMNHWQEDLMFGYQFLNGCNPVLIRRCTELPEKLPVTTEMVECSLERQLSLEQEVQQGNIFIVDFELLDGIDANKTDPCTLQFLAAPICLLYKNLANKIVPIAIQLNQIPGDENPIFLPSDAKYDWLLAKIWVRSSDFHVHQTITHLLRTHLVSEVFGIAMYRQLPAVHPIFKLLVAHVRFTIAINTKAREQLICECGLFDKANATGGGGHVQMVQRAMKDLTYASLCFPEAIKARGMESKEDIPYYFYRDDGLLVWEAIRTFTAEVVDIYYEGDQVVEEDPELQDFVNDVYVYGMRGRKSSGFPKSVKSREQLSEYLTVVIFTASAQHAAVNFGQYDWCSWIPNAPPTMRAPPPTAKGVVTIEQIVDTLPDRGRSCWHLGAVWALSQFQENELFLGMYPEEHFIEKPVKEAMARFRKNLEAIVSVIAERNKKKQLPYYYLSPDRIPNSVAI
# Protocol: COX-2 and 5-LOX inhibitory activities were tested using fluorometric COX-2 and 5-LOX inhibitor screening kits (Abcam, UK). These assays are based on the fluorometric detection of Prostaglandin G2 (a product generated by the COX enzyme) or on the fluorometric detection of intermediate generated by the 5-LOX enzyme. The experiments were conducted according to the manufacturers’ instructions.
# For the determination of COX-2 inhibitory activity, tested compounds were dissolved in DMSO (5 mM stock solutions) and then diluted with the same solvent to obtain test solutions. Test solutions were further diluted 5X with COX assay buffer (2 µL of test solution and 8 µL COX assay buffer). […] Solvent control (SC) was prepared by adding 2 µL DMSO and 8 µL COX assay buffer, while sample (S) and enzyme control (EC) were prepared by adding 10 µL of diluted test solution and COX assay buffer, respectively, into assigned wells. For the determination of 5-LOX inhibitory activity, tested compounds were also dissolved in DMSO to prepare stock solutions with the same concentration (5mM), which were then diluted with the same solvent to obtain test solutions. Subsequently, test solutions were added to corresponding wells (2 µL).
# [3] = Acute oral toxicity evaluation in rats; assay type: in vivo, Wistar albino rats; settings: single oral dose 10 mg/kg, after 14 days, (absolute organ weight × 100%)/body weight
# Protocol: Healthy male rats (n = 24, three rats per group, body weight 180–200 g) were used for conducting an acute oral toxicity study. Animals were divided into the following groups: a control group that included rats that received a single dose of 1% DMSO and experimental groups that involved rats that received compounds 1–7 in the single dose of 10 mg/kg.
# After oral administration of the aforementioned agents, rats were kept in single cages and monitored during 14 days. Food and water intake, as well as body weight, were measured daily. All the behavioral changes and any signs of toxicity were monitored daily during 2-week protocol (fur and skin, eyes, salivation, respiration, urination (color), faeces consistency, somatomotor activity, and other alterations in behavior pattern). After accomplishing 14 days, animals were sacrificed and organ weight (liver, kidney, stomach, and heart) was recorded. Relative organ weight was calculated as follows:(absolute organ weight × 100%)/body weight of rat on the day of sacrifice.(1)
# [4] = 2.5 mg/kg per os, 1 h after carrageenan
# [5] = 2.5 mg/kg per os, 2 h after carrageenan
# [6] = 2.5 mg/kg per os, 3 h after carrageenan
# [7] = 2.5 mg/kg per os, 4 h after carrageenan
# [8] = 5.0 mg/kg per os, 1 h after carrageenan
# [9] = 5.0 mg/kg per os, 2 h after carrageenan
# [10] = 5.0 mg/kg per os, 3 h after carrageenan
# [11] = 5.0 mg/kg per os, 4 h after carrageenan
# [12] = 10.0 mg/kg per os, 1 h after carrageenan
# [13] = 10.0 mg/kg per os, 2 h after carrageenan
# [14] = 10.0 mg/kg per os, 3 h after carrageenan
# [15] = 10.0 mg/kg per os, 4 h after carrageenan
# [16] = 1 h, 2.5 mg/kg per os, 1 h after carrageenan
# [17] = 1 h, 5.0 mg/kg per os, 1 h after carrageenan
# [18] = 1 h, 10.0 mg/kg per os, 1 h after carrageenan
# [19] = 2 h, 2.5 mg/kg per os, 2 h after carrageenan
# [20] = 2 h, 5.0 mg/kg per os, 2 h after carrageenan
# [21] = 2 h, 10.0 mg/kg per os, 2 h after carrageenan
# [22] = 3 h, 2.5 mg/kg per os, 3 h after carrageenan
# [23] = 3 h, 5.0 mg/kg per os, 3 h after carrageenan
# [24] = 3 h, 10.0 mg/kg per os, 3 h after carrageenan
# [25] = 4 h, 2.5 mg/kg per os, 4 h after carrageenan
# [26] = 4 h, 5.0 mg/kg per os, 4 h after carrageenan
# [27] = 4 h, 10.0 mg/kg per os, 4 h after carrageenan
SMILES,"Rat paw thickness [1, 4] [mm]","Rat paw thickness [1, 5] [mm]","Rat paw thickness [1, 6] [mm]","Rat paw thickness [1, 7] [mm]","Rat paw thickness [1, 8] [mm]","Rat paw thickness [1, 9] [mm]","Rat paw thickness [1, 10] [mm]","Rat paw thickness [1, 11] [mm]","Rat paw thickness [1, 12] [mm]","Rat paw thickness [1, 13] [mm]","Rat paw thickness [1, 14] [mm]","Rat paw thickness [1, 15] [mm]","inhibition in vivo at 2.5 mg/kg [1, 16] [%]","inhibition in vivo at 5 mg/kg [1, 17] [%]","inhibition in vivo at 10 mg/kg [1, 18] [%]","inhibition in vivo at 2.5 mg/kg [1, 19] [%]","inhibition in vivo at 5 mg/kg [1, 20] [%]","inhibition in vivo at 10 mg/kg [1, 21] [%]","inhibition in vivo at 2.5 mg/kg [1, 22] [%]","inhibition in vivo at 5 mg/kg [1, 23] [%]",also measured
"COC(=O)[C@H](Cc1cn(C)c2ccccc12)NC(=S)NC(=O)[C@@H](C)c1ccc2cc(OC)ccc2c1 [Compound 7, Methyl-N^α-(((S)-2-(6-methoxynaphthalen-2-yl)propanoyl)carbamothioyl)-1-methyltryptophanate]",7.03 ± 0.15,6.47 ± 0.21,6.10 ± 0.20,5.87 ± 0.21,7.10 ± 0.17,6.80 ± 0.20,6.43 ± 0.32,6.03 ± 0.61,6.87 ± 0.25,6.50 ± 0.36,6.03 ± 0.21,5.47 ± 0.38,21.6,24.4,14.8,38.7,29.5,21.8,47,36.1,"inhibition in vivo at 10 mg/kg [1, 24]: 32.4%; inhibition in vivo at 2.5 mg/kg [1, 25]: 49.4%; inhibition in vivo at 5 mg/kg [1, 26]: 47.1%; inhibition in vivo at 10 mg/kg [1, 27]: 54.1%; inhibition at 10 µM [2]: 20.7 ± 4.19%; Relative organ weight, heart [3]: 0.33 ± 0.03; Relative organ weight, kidney [3]: 0.29 ± 0.03; Relative organ weight, liver [3]: 2.64 ± 0.46; Relative organ weight, stomach [3]: 0.50 ± 0.04"
"COc1cccc(NC(=S)NC(=O)[C@@H](C)c2ccc3cc(OC)ccc3c2)c1 [Compound 4, (S)-2-(6-methoxynaphthalen-2-yl)-N-((3-methoxyphenyl)carbamothioyl)propanamide]",5.93 ± 0.25,5.40 ± 0.10,5.17 ± 0.15,4.90 ± 0.10,6.10 ± 0.44,5.97 ± 0.25,5.70 ± 0.46,5.22 ± 0.50,6.00 ± 0.10,5.70 ± 0.20,5.30 ± 0.17,4.90 ± 0.20,21.6,29.9,27.1,37.2,28,32.6,37.9,28.8,"inhibition in vivo at 10 mg/kg [1, 24]: 41.5%; inhibition in vivo at 2.5 mg/kg [1, 25]: 40.5%; inhibition in vivo at 5 mg/kg [1, 26]: 43.2%; inhibition in vivo at 10 mg/kg [1, 27]: 54%; inhibition at 10 µM [2]: 77.2 ± 0.26%; IC50 [2]: 0.3 ± 0.12 µM; Relative organ weight, heart [3]: 0.30 ± 0.03; Relative organ weight, kidney [3]: 0.33 ± 0.07; Relative organ weight, liver [3]: 2.45 ± 0.15; Relative organ weight, stomach [3]: 0.50 ± 0.05"
"COc1ccc2cc([C@H](C)C(=O)NC(=S)Nc3ccc(F)cc3)ccc2c1 [Compound 1, (S)-N-((4-fluorophenyl)carbamothioyl)-2-(6-methoxynaphthalen-2-yl)propanamide]",6.50 ± 0.40,6.50 ± 0.40,6.20 ± 0.30,5.53 ± 0.29,7.00 ± 0.10,6.50 ± 0.17,5.8 ± 0.20,5.27 ± 0.29,7.03 ± 0.12,6.60 ± 0.10,6.10 ± 0.17,5.27 ± 0.50,20.3,-7.22,-5.84,11.1,3.45,1.92,10.5,23.3,"inhibition in vivo at 10 mg/kg [1, 24]: 10.5%; inhibition in vivo at 2.5 mg/kg [1, 25]: 33.3%; inhibition in vivo at 5 mg/kg [1, 26]: 40.2%; inhibition in vivo at 10 mg/kg [1, 27]: 44.8%; inhibition at 10 µM [2]: 34.2 ± 1.04%; IC50 [2]: 19.2 ± 0.96 µM; Relative organ weight, heart [3]: 0.32 ± 0.02; Relative organ weight, kidney [3]: 0.31 ± 0.03; Relative organ weight, liver [3]: 2.73 ± 0.24; Relative organ weight, stomach [3]: 0.54 ± 0.05"
